# Data as given in ChEMBL document CHEMBL3045273, “Synthesis, characterization, and pharmacological evaluation of 1-[2-(6-nitro-4-oxo-2-phenyl-4H-quinazolin-3-yl)-ethyl]-3-phenyl ureas” (2013).
# Experiments:
# Bacillus subtilis [1] = test: Antibacterial activity against Bacillus subtilis ATCC 11774 assessed as initial concentration required for appearance of zone of inhibition after 24 hr; type: functional
# Escherichia coli [2] = test: Antibacterial activity against Escherichia coli ATCC 25922 assessed as growth inhibition after 24 hr by serial broth dilution method; type: functional; conditions: ATCC 25922, 24 h
# Bacillus subtilis [3] = test: Antibacterial activity against Bacillus subtilis ATCC 11774 assessed as growth inhibition at 100 ug/ml after 24 hr by Kirby-Bauer disk diffusion method; type: functional; conditions: ATCC 11774, 24 h, read-out: DIZ
# Bacillus subtilis [4] = test: Antibacterial activity against Bacillus subtilis ATCC 11774 assessed as growth inhibition after 24 hr by serial broth dilution method; type: functional; conditions: ATCC 11774, 24 h
# Escherichia coli [5] = test: Antibacterial activity against Escherichia coli ATCC 25922 assessed as initial concentration required for appearance of zone of inhibition after 24 hr; type: functional
# Escherichia coli [6] = test: microbe, parasite or virus in culture; conditions: ATCC 25922, 24 h, read-out: DIZ
# Candida albicans [7] = test: Antifungal activity against Candida albicans ATCC 66027 assessed as growth inhibition at 300 ug/ml after 24 hr by Kirby-Bauer disk diffusion method; type: functional; conditions: ATCC 66027, 24 h, read-out: DIZ
# Pseudomonas aeruginosa [8] = test: Antibacterial activity against Pseudomonas aeruginosa ATCC 27853 assessed as growth inhibition at 300 ug/ml after 24 hr by Kirby-Bauer disk diffusion method; type: functional; conditions: ATCC 27853, 24 h, read-out: DIZ
# Candida albicans [9] = test: Antifungal activity against Candida albicans ATCC 66027 assessed as growth inhibition after 24 hr by serial broth dilution method; type: functional; conditions: ATCC 66027, 24 h
# Bacillus subtilis [10] = test: Antibacterial activity against Bacillus subtilis ATCC 11774 assessed as growth inhibition at 300 ug/ml after 24 hr by Kirby-Bauer disk diffusion method; type: functional; conditions: ATCC 11774, 24 h, read-out: DIZ
# Staphylococcus aureus [11] = test: Antibacterial activity against Staphylococcus aureus ATCC 25923 assessed as growth inhibition at 300 ug/ml after 24 hr by Kirby-Bauer disk diffusion method; type: functional; conditions: ATCC 25923, 24 h, read-out: DIZ
# Staphylococcus aureus [12] = test: Antibacterial activity against Staphylococcus aureus ATCC 25923 assessed as growth inhibition after 24 hr by serial broth dilution method; type: functional; conditions: ATCC 25923, 24 h
# Pseudomonas aeruginosa [13] = test: Antibacterial activity against Pseudomonas aeruginosa ATCC 27853 assessed as initial concentration required for appearance of zone of inhibition after 24 hr; type: functional
# Staphylococcus aureus [14] = test: Antibacterial activity against Staphylococcus aureus ATCC 25923 assessed as initial concentration required for appearance of zone of inhibition after 24 hr; type: functional
# Candida albicans [15] = test: Antifungal activity against Candida albicans ATCC 66027 assessed as initial concentration required for appearance of zone of inhibition after 24 hr; type: functional
# Escherichia coli [16] = test: microbe, parasite or virus in culture; conditions: ATCC 25922, 24 h, read-out: DIZ; remark: listed apart in the source
# Candida albicans [17] = test: Antifungal activity against Candida albicans ATCC 66027 assessed as growth inhibition at 100 ug/ml after 24 hr by Kirby-Bauer disk diffusion method; type: functional; conditions: ATCC 66027, 24 h, read-out: DIZ
# Pseudomonas aeruginosa [18] = test: Antibacterial activity against Pseudomonas aeruginosa ATCC 27853 assessed as growth inhibition after 24 hr by serial broth dilution method; type: functional; conditions: ATCC 27853, 24 h
# Pseudomonas aeruginosa [19] = test: Antibacterial activity against Pseudomonas aeruginosa ATCC 27853 assessed as growth inhibition at 100 ug/ml after 24 hr by Kirby-Bauer disk diffusion method; type: functional; conditions: ATCC 27853, 24 h, read-out: DIZ
# Staphylococcus aureus [20] = test: Antibacterial activity against Staphylococcus aureus ATCC 25923 assessed as growth inhibition at 100 ug/ml after 24 hr by Kirby-Bauer disk diffusion method; type: functional; conditions: ATCC 25923, 24 h, read-out: DIZ
# Escherichia coli [21] = test: Antibacterial activity against Escherichia coli ATCC 25922 assessed as growth inhibition at 40 ug/ml after 24 hr by Kirby-Bauer disk diffusion method; type: functional; conditions: ATCC 25922, 24 h, read-out: DIZ
SMILES,Activity (Bacillus subtilis [1]),MIC (Escherichia coli [2]),zone of inhibition at 100 µg/mL (Bacillus subtilis [3]),MIC (Bacillus subtilis [4]),Activity (Escherichia coli [5]),zone of inhibition at 300 µg/mL (Escherichia coli [6]),zone of inhibition at 300 µg/mL (Candida albicans [7]),zone of inhibition at 300 µg/mL (Pseudomonas aeruginosa [8]),MIC (Candida albicans [9]),zone of inhibition at 300 µg/mL (Bacillus subtilis [10]),zone of inhibition at 300 µg/mL (Staphylococcus aureus [11]),MIC (Staphylococcus aureus [12]),Activity (Pseudomonas aeruginosa [13]),Activity (Staphylococcus aureus [14]),Activity (Candida albicans [15]),zone of inhibition at 100 µg/mL (Escherichia coli [16]),zone of inhibition at 100 µg/mL (Candida albicans [17]),MIC (Pseudomonas aeruginosa [18]),zone of inhibition at 100 µg/mL (Pseudomonas aeruginosa [19]),further results
O=C(NCCn1c(-c2ccccc2)nc2ccc([N+](=O)[O-])cc2c1=O)Nc1ccccc1,100 µg/mL,70 µg/mL,11 mm,100 µg/mL,100 µg/mL,16 mm,20 mm,14 mm,20 µg/mL,15 mm,14 mm,100 µg/mL,200 µg/mL,200 µg/mL,20 µg/mL,11 mm,17 mm,40 µg/mL,–,–
O=C(NCCn1c(-c2ccccc2)nc2ccc([N+](=O)[O-])cc2c1=O)NC1CCCCC1,200 µg/mL,70 µg/mL,–,100 µg/mL,70 µg/mL,18 mm,21 mm,17 mm,20 µg/mL,13 mm,12 mm,200 µg/mL,70 µg/mL,200 µg/mL,20 µg/mL,13 mm,13 mm,70 µg/mL,12 mm,–
O=C(NCCn1c(-c2ccccc2)nc2ccc([N+](=O)[O-])cc2c1=O)Nc1ccc(Cl)cc1,70 µg/mL,40 µg/mL,12 mm,70 µg/mL,70 µg/mL,14 mm,21 mm,16 mm,40 µg/mL,16 mm,12 mm,200 µg/mL,100 µg/mL,200 µg/mL,40 µg/mL,12 mm,15 mm,40 µg/mL,11 mm,–
O=C(NCCn1c(-c2ccccc2)nc2ccc([N+](=O)[O-])cc2c1=O)Nc1ccc(C(F)(F)F)cc1,70 µg/mL,70 µg/mL,12 mm,70 µg/mL,100 µg/mL,15 mm,20 mm,18 mm,40 µg/mL,14 mm,13 mm,70 µg/mL,70 µg/mL,100 µg/mL,40 µg/mL,11 mm,15 mm,40 µg/mL,12 mm,zone of inhibition at 100 µg/mL (Staphylococcus aureus [20]): 11 mm
O=C(NCCn1c(-c2ccccc2)nc2ccc([N+](=O)[O-])cc2c1=O)Nc1cc(C(F)(F)F)cc(C(F)(F)F)c1,70 µg/mL,100 µg/mL,14 mm,40 µg/mL,100 µg/mL,14 mm,24 mm,19 mm,20 µg/mL,19 mm,12 mm,200 µg/mL,40 µg/mL,200 µg/mL,20 µg/mL,11 mm,17 mm,40 µg/mL,14 mm,–
CSc1ccc(NC(=O)NCCn2c(-c3ccccc3)nc3ccc([N+](=O)[O-])cc3c2=O)cc1,70 µg/mL,40 µg/mL,12 mm,70 µg/mL,40 µg/mL,18 mm,20 mm,19 mm,20 µg/mL,16 mm,12 mm,200 µg/mL,70 µg/mL,200 µg/mL,20 µg/mL,14 mm,15 mm,70 µg/mL,12 mm,zone of inhibition at 40 µg/mL (Escherichia coli [21]): 11 mm
O=C(NCCn1c(-c2ccccc2)nc2ccc([N+](=O)[O-])cc2c1=O)Nc1cc(C(F)(F)F)ccc1Cl,100 µg/mL,70 µg/mL,11 mm,100 µg/mL,70 µg/mL,18 mm,20 mm,19 mm,20 µg/mL,14 mm,12 mm,200 µg/mL,70 µg/mL,300 µg/mL,40 µg/mL,11 mm,14 mm,70 µg/mL,12 mm,–
O=C(O)c1cn(C2CC2)c2cc(N3CCNCC3)c(F)cc2c1=O [CIPROFLOXACIN],5 µg/mL,15 µg/mL,–,5 µg/mL,20 µg/mL,–,–,–,–,–,–,5 µg/mL,10 µg/mL,10 µg/mL,–,–,–,10 µg/mL,–,–
OC(Cn1cncn1)(Cn1cncn1)c1ccc(F)cc1F [FLUCONAZOLE],–,–,–,–,–,–,–,–,5 µg/mL,–,–,–,–,–,10 µg/mL,–,–,–,–,–
